Measured values from PubChem BioAssay (NCI).
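Results reflect a 48-hour exposure of cells in 96-well plates to compound at five concentrations. TGI is the concentration that stops growth completely.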

How the values were obtained:
Assay in all cases: NCI tumour cell line growth inhibition, 48 h
MCF7 breast = system: MCF7 breast
KM12 colon = system: KM12 colon
OVCAR-8 ovarian = system: OVCAR-8 ovarian
SF-295 CNS = system: SF-295 CNS
ACHN renal = system: ACHN renal
MDA-N = system: MDA-N
MDA-MB-435 = system: MDA-MB-435
NCI/ADR-RES ovarian = system: NCI/ADR-RES ovarian
UACC-62 melanoma = system: UACC-62 melanoma
HCT-116 colon = system: HCT-116 colon
PC-3 prostate = system: PC-3 prostate
A549 NSCLC = system: A549 NSCLC
UACC-257 melanoma = system: UACC-257 melanoma
CAKI-1 renal = system: CAKI-1 renal
RPMI-8226 leukemia = system: RPMI-8226 leukemia
CCRF-CEM leukemia = system: CCRF-CEM leukemia
LOX IMVI melanoma = system: LOX IMVI melanoma
K-562 leukemia = system: K-562 leukemia
U251 CNS = system: U251 CNS
NCI-H460 lung = system: NCI-H460 lung
TK-10 renal = system: TK-10 renal
T-47D breast = system: T-47D breast
SN12C renal = system: SN12C renal
HOP-92 NSCLC = system: HOP-92 NSCLC
SK-OV-3 ovarian = system: SK-OV-3 ovarian
NCI-H226 lung = system: NCI-H226 lung
NCI-H522 lung = system: NCI-H522 lung
HT29 colon = system: HT29 colon
A498 renal = system: A498 renal
MOLT-4 leukemia = system: MOLT-4 leukemia
MDA-MB-231 breast = system: MDA-MB-231 breast
SNB-19 CNS = system: SNB-19 CNS
NCI-H23 lung = system: NCI-H23 lung
EKVX NSCLC = system: EKVX NSCLC
IGROV1 ovarian = system: IGROV1 ovarian
HS 578T breast = system: HS 578T breast
SF-268 CNS = system: SF-268 CNS
OVCAR-5 ovarian = system: OVCAR-5 ovarian
HCC-2998 colon = system: HCC-2998 colon
SK-MEL-28 melanoma = system: SK-MEL-28 melanoma
SR leukemia = system: SR leukemia
DU-145 prostate = system: DU-145 prostate
OVCAR-4 ovarian = system: OVCAR-4 ovarian
SK-MEL-2 melanoma = system: SK-MEL-2 melanoma
786-0 renal = system: 786-0 renal
OVCAR-3 ovarian = system: OVCAR-3 ovarian
HOP-62 NSCLC = system: HOP-62 NSCLC
COLO 205 colon = system: COLO 205 colon
HCT-15 colon = system: HCT-15 colon
SK-MEL-5 melanoma = system: SK-MEL-5 melanoma
SW-620 colon = system: SW-620 colon
UO-31 renal = system: UO-31 renal
SF-539 CNS = system: SF-539 CNS
M14 melanoma = system: M14 melanoma
MALME-3M melanoma = system: MALME-3M melanoma
SNB-75 CNS = system: SNB-75 CNS
HL-60(TB) leukemia = system: HL-60(TB) leukemia
RXF 393 renal = system: RXF 393 renal

CCC1=C(c2ccc(OC)cc2)CC[C@@]2(CCNC2=O)[C@@H]1C
TGI (MCF7 breast): > 100 µM
TGI (KM12 colon): > 100 µM
TGI (OVCAR-8 ovarian): > 100 µM
TGI (SF-295 CNS): > 100 µM
TGI (ACHN renal): > 100 µM
TGI (MDA-N): > 100 µM
TGI (MDA-MB-435): > 100 µM
TGI (NCI/ADR-RES ovarian): > 100 µM
TGI (UACC-62 melanoma): > 100 µM
TGI (HCT-116 colon): > 100 µM
TGI (PC-3 prostate): > 100 µM
TGI (A549 NSCLC): > 100 µM
TGI (UACC-257 melanoma): > 100 µM
TGI (CAKI-1 renal): > 100 µM
TGI (RPMI-8226 leukemia): > 100 µM
TGI (CCRF-CEM leukemia): > 100 µM
TGI (LOX IMVI melanoma): > 100 µM
TGI (K-562 leukemia): > 95.9 µM
TGI (U251 CNS): > 100 µM
TGI (NCI-H460 lung): > 100 µM
TGI (TK-10 renal): > 100 µM
TGI (T-47D breast): > 100 µM
TGI (SN12C renal): > 100 µM
TGI (HOP-92 NSCLC): > 100 µM
TGI (SK-OV-3 ovarian): > 100 µM
TGI (NCI-H226 lung): > 100 µM
TGI (NCI-H522 lung): > 100 µM
TGI (HT29 colon): > 100 µM
TGI (A498 renal): > 100 µM
TGI (MOLT-4 leukemia): > 90.3 µM
TGI (MDA-MB-231 breast): > 100 µM
TGI (SNB-19 CNS): > 100 µM
TGI (NCI-H23 lung): > 100 µM
TGI (EKVX NSCLC): > 100 µM
TGI (IGROV1 ovarian): > 100 µM
TGI (HS 578T breast): > 89.5 µM
TGI (SF-268 CNS): > 100 µM
TGI (OVCAR-5 ovarian): > 100 µM
TGI (HCC-2998 colon): > 100 µM
TGI (SK-MEL-28 melanoma): > 100 µM
TGI (SR leukemia): > 100 µM
TGI (DU-145 prostate): > 100 µM
TGI (OVCAR-4 ovarian): > 100 µM
TGI (SK-MEL-2 melanoma): > 100 µM
TGI (786-0 renal): > 100 µM
TGI (OVCAR-3 ovarian): > 100 µM
TGI (HOP-62 NSCLC): > 100 µM
TGI (COLO 205 colon): > 100 µM
TGI (HCT-15 colon): > 100 µM
TGI (SK-MEL-5 melanoma): 58.7 µM
TGI (SW-620 colon): > 100 µM
TGI (UO-31 renal): > 100 µM
TGI (SF-539 CNS): > 100 µM
TGI (M14 melanoma): > 100 µM
TGI (MALME-3M melanoma): > 100 µM
TGI (SNB-75 CNS): > 100 µM

O=C(O)c1cc(-c2ccc3c(O)ccc(O)c3c2)ccc1O
TGI (MCF7 breast): 39.6 µM
TGI (KM12 colon): 43.2 µM
TGI (OVCAR-8 ovarian): 54.4 µM
TGI (HL-60(TB) leukemia): > 100 µM
TGI (SF-295 CNS): 33.8 µM
TGI (ACHN renal): 33.4 µM
TGI (MDA-N): 31.6 µM
TGI (MDA-MB-435): 34.4 µM
TGI (NCI/ADR-RES ovarian): 82.4 µM
TGI (UACC-62 melanoma): 33.8 µM
TGI (HCT-116 colon): 32.6 µM
TGI (PC-3 prostate): 26.3 µM
TGI (A549 NSCLC): > 100 µM
TGI (UACC-257 melanoma): 33 µM
TGI (CAKI-1 renal): 30.2 µM
TGI (RXF 393 renal): 27.9 µM
TGI (RPMI-8226 leukemia): > 100 µM
TGI (CCRF-CEM leukemia): 5.58 µM
TGI (LOX IMVI melanoma): 29.8 µM
TGI (U251 CNS): 41.3 µM
TGI (NCI-H460 lung): 48.5 µM
TGI (TK-10 renal): 35.6 µM
TGI (T-47D breast): 35.3 µM
TGI (SN12C renal): 31.6 µM
TGI (NCI-H226 lung): 44 µM
TGI (NCI-H522 lung): 36.5 µM
TGI (HT29 colon): 43.9 µM
TGI (A498 renal): 32 µM
TGI (MOLT-4 leukemia): 16.3 µM
TGI (MDA-MB-231 breast): 39.6 µM
TGI (SNB-19 CNS): > 100 µM
TGI (NCI-H23 lung): 64.9 µM
TGI (EKVX NSCLC): 34.7 µM
TGI (IGROV1 ovarian): 31.9 µM
TGI (HS 578T breast): 73.5 µM
TGI (SF-268 CNS): 82.9 µM
TGI (OVCAR-5 ovarian): 32.3 µM
TGI (HCC-2998 colon): 32.6 µM
TGI (SK-MEL-28 melanoma): 41.5 µM
TGI (SR leukemia): > 100 µM
TGI (DU-145 prostate): 52.3 µM
TGI (OVCAR-4 ovarian): 31.2 µM
TGI (SK-MEL-2 melanoma): 34.3 µM
TGI (786-0 renal): 30.2 µM
TGI (OVCAR-3 ovarian): 43.5 µM
TGI (HOP-62 NSCLC): 98.9 µM
TGI (COLO 205 colon): 39.4 µM
TGI (HCT-15 colon): 34.4 µM
TGI (SK-MEL-5 melanoma): 28.2 µM
TGI (SW-620 colon): 28.6 µM
TGI (UO-31 renal): 31.3 µM
TGI (SF-539 CNS): 30.8 µM
TGI (M14 melanoma): 47.7 µM
TGI (MALME-3M melanoma): 36.3 µM
TGI (SNB-75 CNS): 60.1 µM

c1ccc([P+](CCN2Cc3ccccc3C2)(c2ccccc2)c2ccccc2)cc1
TGI (MCF7 breast): 14.4 µM
TGI (KM12 colon): 16 µM
TGI (OVCAR-8 ovarian): 7.95 µM
TGI (HL-60(TB) leukemia): 10.5 µM
TGI (SF-295 CNS): 83.9 µM
TGI (ACHN renal): 23.1 µM
TGI (MDA-N): 14.3 µM
TGI (MDA-MB-435): 13.7 µM
TGI (NCI/ADR-RES ovarian): > 100 µM
TGI (UACC-62 melanoma): 13.1 µM
TGI (HCT-116 colon): 20.9 µM
TGI (PC-3 prostate): > 100 µM
TGI (A549 NSCLC): > 100 µM
TGI (UACC-257 melanoma): 12.4 µM
TGI (CAKI-1 renal): > 100 µM
TGI (RXF 393 renal): 22.3 µM
TGI (CCRF-CEM leukemia): 40.5 µM
TGI (LOX IMVI melanoma): 33 µM
TGI (K-562 leukemia): > 100 µM
TGI (U251 CNS): 19.5 µM
TGI (NCI-H460 lung): > 100 µM
TGI (TK-10 renal): 41.5 µM
TGI (T-47D breast): 24.3 µM
TGI (SN12C renal): 32.8 µM
TGI (HOP-92 NSCLC): 6.41 µM
TGI (SK-OV-3 ovarian): 66.2 µM
TGI (NCI-H226 lung): 31.7 µM
TGI (NCI-H522 lung): 12.2 µM
TGI (HT29 colon): 22.2 µM
TGI (A498 renal): 55.6 µM
TGI (MOLT-4 leukemia): > 100 µM
TGI (MDA-MB-231 breast): 16.2 µM
TGI (SNB-19 CNS): > 100 µM
TGI (NCI-H23 lung): > 100 µM
TGI (EKVX NSCLC): > 100 µM
TGI (IGROV1 ovarian): 5.87 µM
TGI (HS 578T breast): > 100 µM
TGI (SF-268 CNS): 30.1 µM
TGI (OVCAR-5 ovarian): 57 µM
TGI (HCC-2998 colon): 15.9 µM
TGI (SK-MEL-28 melanoma): 9.6 µM
TGI (SR leukemia): 52 µM
TGI (DU-145 prostate): 45.6 µM
TGI (SK-MEL-2 melanoma): 5.41 µM
TGI (786-0 renal): 44.4 µM
TGI (OVCAR-3 ovarian): 18.1 µM
TGI (HOP-62 NSCLC): 45.3 µM
TGI (COLO 205 colon): 3.45 µM
TGI (HCT-15 colon): 36.2 µM
TGI (SK-MEL-5 melanoma): 11.3 µM
TGI (SW-620 colon): 25.8 µM
TGI (UO-31 renal): 34.6 µM
TGI (SF-539 CNS): 24.4 µM
TGI (M14 melanoma): 23 µM
TGI (MALME-3M melanoma): 25.1 µM
TGI (SNB-75 CNS): 8.71 µM
